In ChEMBL document CHEMBL5665443, “Enzyme Inhibitor Single Concentration assay results for EUbOPEN Chemogenomics Library” (2024):

What was measured:
[1] = molecular target: Methyl-CpG-binding domain protein 4 (Homo sapiens) (UniProt O95243); settings: Compound Concentration 10.0 uM;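 also: MBD4 activity read as fluorescence at 594 nm from cleavage and release of a quenched duplex DNA oligonucleotide, with APE1 coupled to incise the strand and raise turnover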
Description: Inhibition of MBD4 by quantifying inhibition of MBD4-mediated cleavage and dissociation of quenched duplex DNA oligonucleotides, measured as fluorescence at 594 nm. To generate a functional strand incision and increase turn-over this assay is coupled to APE1.

[2] = molecular target: DNA-3-methyladenine glycosylase (Homo sapiens) (UniProt P29372); settings: Compound Concentration 10.0 uM;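 also: enzyme assay where MPG cuts a quenched duplex DNA oligonucleotide probe, paired with APE1 for strand incision and turnover, read as fluorescence at 594 nm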
Description: Inhibition of MPG by quantifying inhibition of MPG-mediated cleavage and dissociation of quenched duplex DNA oligonucleotides, measured as fluorescence at 594 nm. To generate a functional strand incision and increase turn-over this assay is coupled to APE1.

[3] = molecular target: T1, Adenine DNA glycosylase (Homo sapiens) (UniProt Q9UIF7); settings: Compound Concentration 10.0 uM, Hit No;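 also: human MUTYH activity read as 594 nm fluorescence from cleavage and release of a quenched DNA duplex, coupled with APE1 for strand incision, lower signal meaning inhibition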
T1 sequence (whole entry): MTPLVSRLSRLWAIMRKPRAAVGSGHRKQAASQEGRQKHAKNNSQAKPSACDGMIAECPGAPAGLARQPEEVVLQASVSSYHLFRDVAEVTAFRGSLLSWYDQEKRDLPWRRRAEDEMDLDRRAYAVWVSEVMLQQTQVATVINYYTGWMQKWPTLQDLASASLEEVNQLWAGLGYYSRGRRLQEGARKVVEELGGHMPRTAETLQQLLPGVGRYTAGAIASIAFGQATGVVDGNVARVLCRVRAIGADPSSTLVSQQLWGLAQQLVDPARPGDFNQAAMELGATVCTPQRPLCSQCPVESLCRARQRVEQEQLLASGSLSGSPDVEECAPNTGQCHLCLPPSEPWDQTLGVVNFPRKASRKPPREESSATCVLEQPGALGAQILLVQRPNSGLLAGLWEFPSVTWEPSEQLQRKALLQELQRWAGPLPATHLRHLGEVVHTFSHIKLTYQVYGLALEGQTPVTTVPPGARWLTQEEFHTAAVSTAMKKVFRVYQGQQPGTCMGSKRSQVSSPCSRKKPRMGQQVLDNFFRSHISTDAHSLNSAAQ
Description: Inhibition of MUTYH by quantifying inhibition of MUTYH-mediated cleavage and dissociation of quenched duplex DNA oligonucleotides, measured as fluorescence at 594 nm. To generate a functional strand incision and increase turn-over this assay is coupled to APE1.

[4] = molecular target: Endonuclease 8-like 1 (Homo sapiens) (UniProt Q96FI4); settings: Compound Concentration 10.0 uM;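 also: fluorescence at 594 nm from quenched duplex DNA oligonucleotides released by NEIL1 cleavage and strand separation, reported as reduction of this enzyme activity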
Description: Inhibition of NEIL1 by quantifying inhibition of NEIL1-mediated cleavage and dissociation of quenched duplex DNA oligonucleotides, measured as fluorescence at 594 nm.

[5] = molecular target: T2, Endonuclease 8-like 2 (Homo sapiens) (UniProt Q969S2); settings: Compound Concentration 10.0 uM;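 also: fluorescence at 594 nm reports NEIL2 cutting and release of a quenched double-stranded DNA oligo substrate, reduced signal read as inhibition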
T2 sequence (whole entry): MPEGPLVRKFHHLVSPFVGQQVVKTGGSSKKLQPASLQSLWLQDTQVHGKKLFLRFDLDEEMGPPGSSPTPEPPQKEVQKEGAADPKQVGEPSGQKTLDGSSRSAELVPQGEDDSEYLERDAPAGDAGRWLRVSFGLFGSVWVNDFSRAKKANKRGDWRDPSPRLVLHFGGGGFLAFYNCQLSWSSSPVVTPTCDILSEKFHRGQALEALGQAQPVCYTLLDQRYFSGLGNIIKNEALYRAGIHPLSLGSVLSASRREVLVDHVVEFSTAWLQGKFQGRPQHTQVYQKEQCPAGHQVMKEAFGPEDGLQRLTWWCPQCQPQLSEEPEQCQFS
Description: Inhibition of NEIL2 by quantifying inhibition of NEIL2-mediated cleavage and dissociation of quenched duplex DNA oligonucleotides, measured as fluorescence at 594 nm.

[6] = molecular target: T3, Endonuclease III-like protein 1 (Homo sapiens) (UniProt P78549); settings: Compound Concentration 10.0 uM;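 also: enzyme assay tracking NTHL1 cutting and release of a quenched double-stranded DNA oligo substrate, read as fluorescence at 594 nm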
T3 sequence (whole entry): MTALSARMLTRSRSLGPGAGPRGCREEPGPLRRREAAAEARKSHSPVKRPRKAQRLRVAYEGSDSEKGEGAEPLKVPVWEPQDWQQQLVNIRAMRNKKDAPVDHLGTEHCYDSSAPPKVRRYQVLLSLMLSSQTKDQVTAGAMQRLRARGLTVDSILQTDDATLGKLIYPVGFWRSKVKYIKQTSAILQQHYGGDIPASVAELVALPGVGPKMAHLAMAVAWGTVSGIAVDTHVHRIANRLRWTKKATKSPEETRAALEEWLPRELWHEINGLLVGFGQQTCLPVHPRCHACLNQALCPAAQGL
Description: Inhibition of NTHL1 by quantifying inhibition of NTHL1-mediated cleavage and dissociation of quenched duplex DNA oligonucleotides, measured as fluorescence at 594 nm.

[7] = molecular target: N-glycosylase/DNA lyase (Homo sapiens) (UniProt O15527); settings: Compound Concentration 10.0 uM;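 also: OGG1 cleavage of a quenched duplex DNA oligonucleotide, coupled to APE1 for strand incision, read as fluorescence at 594 nm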
Description: Inhibition of OGG1 by quantifying inhibition of OGG1-mediated cleavage and dissociation of quenched duplex DNA oligonucleotides, measured as fluorescence at 594 nm. To generate a functional strand incision and increase turn-over this assay is coupled to APE1.

[8] = molecular target: T4, Single-strand selective monofunctional uracil DNA glycosylase (Homo sapiens) (UniProt Q53HV7); settings: Compound Concentration 10.0 uM;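 also: enzymatic SMUG1 assay coupled with APE1, reading fluorescence at 594 nm released when a quenched double-stranded DNA oligonucleotide substrate is cleaved and separated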
T4 sequence (whole entry): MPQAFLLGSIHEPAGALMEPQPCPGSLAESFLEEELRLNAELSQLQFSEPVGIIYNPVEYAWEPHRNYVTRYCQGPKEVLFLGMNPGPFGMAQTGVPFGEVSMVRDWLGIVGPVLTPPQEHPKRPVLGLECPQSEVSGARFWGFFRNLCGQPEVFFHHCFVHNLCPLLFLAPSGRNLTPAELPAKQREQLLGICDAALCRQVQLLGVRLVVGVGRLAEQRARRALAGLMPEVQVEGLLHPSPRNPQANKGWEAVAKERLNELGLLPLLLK
Description: Inhibition of SMUG1 by quantifying inhibition of SMUG1-mediated cleavage and dissociation of quenched duplex DNA oligonucleotides, measured as fluorescence at 594 nm. To generate a functional strand incision and increase turn-over this assay is coupled to APE1.

[9] = molecular target: G/T mismatch-specific thymine DNA glycosylase (Homo sapiens) (UniProt Q13569); settings: Compound Concentration 10.0 uM;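 also: human TDG cleavage of quenched duplex DNA oligonucleotides coupled to APE1, strand release read as fluorescence at 594 nm, inhibition of TDG activity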
Description: Inhibition of TDG by quantifying inhibition of TDG-mediated cleavage and dissociation of quenched duplex DNA oligonucleotides, measured as fluorescence at 594 nm. To generate a functional strand incision and increase turn-over this assay is coupled to APE1.

[10] = molecular target: Uracil-DNA glycosylase (Homo sapiens) (UniProt P13051); settings: Compound Concentration 10.0 uM, Hit No;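 also: UNG excision on a quenched double-stranded DNA oligo probe, with APE1 added for strand incision and turnover, read as fluorescence at 594 nm as strands separate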
Chain of Uracil-DNA glycosylase (Homo sapiens) (P13051 whole entry): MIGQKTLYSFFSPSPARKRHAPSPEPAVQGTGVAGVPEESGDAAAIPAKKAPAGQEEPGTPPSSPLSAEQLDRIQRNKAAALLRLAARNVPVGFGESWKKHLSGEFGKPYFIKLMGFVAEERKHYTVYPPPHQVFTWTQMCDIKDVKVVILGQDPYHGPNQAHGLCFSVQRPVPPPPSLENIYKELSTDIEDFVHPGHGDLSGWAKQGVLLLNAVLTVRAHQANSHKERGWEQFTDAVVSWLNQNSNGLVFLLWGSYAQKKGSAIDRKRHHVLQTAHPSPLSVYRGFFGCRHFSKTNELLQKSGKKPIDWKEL
Description: Inhibition of UNG by quantifying inhibition of UNG-mediated cleavage and dissociation of quenched duplex DNA oligonucleotides, measured as fluorescence at 594 nm. To generate a functional strand incision and increase turn-over this assay is coupled to APE1.

Chain of N-glycosylase/DNA lyase (Homo sapiens) (O15527 whole entry): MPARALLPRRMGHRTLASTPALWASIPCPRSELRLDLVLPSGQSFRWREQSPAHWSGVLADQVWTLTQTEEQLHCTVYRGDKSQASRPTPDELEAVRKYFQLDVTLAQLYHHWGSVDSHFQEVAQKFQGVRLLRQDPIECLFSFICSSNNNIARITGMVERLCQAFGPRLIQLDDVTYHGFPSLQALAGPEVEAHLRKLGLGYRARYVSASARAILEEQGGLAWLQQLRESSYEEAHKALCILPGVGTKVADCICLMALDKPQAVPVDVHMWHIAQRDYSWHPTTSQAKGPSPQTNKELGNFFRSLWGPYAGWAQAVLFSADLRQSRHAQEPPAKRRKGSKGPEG
Chain of Endonuclease 8-like 1 (Homo sapiens) (Q96FI4 whole entry): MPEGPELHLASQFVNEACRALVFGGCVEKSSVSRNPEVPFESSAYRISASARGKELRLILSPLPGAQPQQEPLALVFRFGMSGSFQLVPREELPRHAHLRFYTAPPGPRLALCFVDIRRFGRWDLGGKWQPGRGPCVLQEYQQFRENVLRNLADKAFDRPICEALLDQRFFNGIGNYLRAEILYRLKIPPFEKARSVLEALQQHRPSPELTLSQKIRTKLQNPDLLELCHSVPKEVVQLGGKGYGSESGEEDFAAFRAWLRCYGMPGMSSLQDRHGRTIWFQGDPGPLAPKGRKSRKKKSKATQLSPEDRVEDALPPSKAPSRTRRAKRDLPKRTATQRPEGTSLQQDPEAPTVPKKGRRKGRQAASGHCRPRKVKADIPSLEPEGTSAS
Chain of Methyl-CpG-binding domain protein 4 (Homo sapiens) (O95243 whole entry, the tested form may be a part): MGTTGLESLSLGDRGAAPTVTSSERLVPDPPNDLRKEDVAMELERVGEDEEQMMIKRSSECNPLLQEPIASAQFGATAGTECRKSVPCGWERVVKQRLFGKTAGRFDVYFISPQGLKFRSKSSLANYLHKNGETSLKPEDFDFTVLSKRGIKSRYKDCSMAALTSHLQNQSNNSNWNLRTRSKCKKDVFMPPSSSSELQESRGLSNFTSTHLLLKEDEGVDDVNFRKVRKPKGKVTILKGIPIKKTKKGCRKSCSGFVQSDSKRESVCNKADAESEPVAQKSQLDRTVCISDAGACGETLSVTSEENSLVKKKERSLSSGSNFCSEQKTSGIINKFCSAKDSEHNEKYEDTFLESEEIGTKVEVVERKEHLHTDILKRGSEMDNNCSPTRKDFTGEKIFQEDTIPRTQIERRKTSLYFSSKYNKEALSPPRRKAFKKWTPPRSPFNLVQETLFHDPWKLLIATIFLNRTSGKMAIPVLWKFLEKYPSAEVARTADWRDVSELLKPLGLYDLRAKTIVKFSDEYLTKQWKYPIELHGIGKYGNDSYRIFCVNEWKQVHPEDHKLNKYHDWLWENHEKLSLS
Chain of DNA-3-methyladenine glycosylase (Homo sapiens) (P29372 whole entry): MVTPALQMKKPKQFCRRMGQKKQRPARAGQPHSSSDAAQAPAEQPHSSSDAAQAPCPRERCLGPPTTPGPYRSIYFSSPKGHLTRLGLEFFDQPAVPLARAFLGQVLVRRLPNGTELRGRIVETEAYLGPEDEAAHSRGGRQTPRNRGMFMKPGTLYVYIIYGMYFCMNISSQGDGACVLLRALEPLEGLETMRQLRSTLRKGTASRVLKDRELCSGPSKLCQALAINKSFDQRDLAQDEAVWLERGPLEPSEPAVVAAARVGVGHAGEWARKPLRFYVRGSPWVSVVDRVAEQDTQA
Chain of G/T mismatch-specific thymine DNA glycosylase (Homo sapiens) (Q13569 whole entry): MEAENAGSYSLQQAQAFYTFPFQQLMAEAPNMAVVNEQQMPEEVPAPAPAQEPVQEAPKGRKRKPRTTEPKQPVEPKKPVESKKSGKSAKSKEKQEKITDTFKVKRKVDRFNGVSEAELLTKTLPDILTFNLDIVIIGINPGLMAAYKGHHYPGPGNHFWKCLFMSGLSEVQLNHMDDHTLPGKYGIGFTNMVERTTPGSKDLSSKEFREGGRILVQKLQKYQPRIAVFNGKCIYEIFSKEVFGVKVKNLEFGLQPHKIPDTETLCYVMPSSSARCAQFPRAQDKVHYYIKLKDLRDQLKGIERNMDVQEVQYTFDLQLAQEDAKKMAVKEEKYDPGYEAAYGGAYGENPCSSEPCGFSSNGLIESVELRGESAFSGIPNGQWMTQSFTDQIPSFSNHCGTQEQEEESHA

Row | Structure (SMILES) | inhibition ([1]; Hit No) | inhibition ([2]; Hit No) | inhibition [3] | inhibition ([4]; Hit No) | inhibition ([5]; Hit No) | inhibition ([6]; Hit No) | inhibition ([7]; Hit No) | inhibition ([8]; Hit No) | inhibition ([9]; Hit No) | inhibition [10] | inhibition ([1]; Hit Yes) | inhibition ([2]; Hit Yes) | inhibition ([9]; Hit Yes) | inhibition ([4]; Hit Yes) | inhibition ([5]; Hit Yes) | inhibition ([6]; Hit Yes) | inhibition ([7]; Hit Yes) | inhibition ([8]; Hit Yes)
1 | O=C1NCN(c2ccccc2)C12CCN(CCCOc1ccc(F)cc1)CC2 | 6.25% | -9.19% | -5.23% | -1.54% | 2.26% | 4.86% | -4.77% | 13.1% | 13.9% | -6.4% |  |  |  |  |  |  |  | 
2 | Nc1nc2cc(-c3cc(Cl)ccc3Oc3cc(F)c(S(=O)(=O)Nc4ncns4)cc3F)ccc2[nH]1 | 38.8% | 20.7% | 39.3% | 6.97% | -7.23% | 6.35% | -2.14% | 4.45% | 33.8% | 1.83% |  |  |  |  |  |  |  | 
3 | CCOC(=O)C1=C(C)NC(C)=C(C(=O)OC)C1c1cccc([N+](=O)[O-])c1 (stereo not given) | -5.63% | 2.85% | -7.47% | 1.49% | -2.39% | 12.9% | -2.89% | 2.81% | 1.01% | -2.15% |  |  |  |  |  |  |  | 
4 | CCc1cc(C(C)=O)c(O)cc1OCCCCCC(C)(C)c1nn[nH]n1 | 24% | 13% | 7.7% | -0.204% | -8.97% | 9.99% | 16.1% | 0.79% | 21.1% | -4.34% |  |  |  |  |  |  |  | 
5 | COc1c(C(=O)/C=C/c2ccccc2)c(O)c(OC)c2occc12 | 19.3% | 7.88% | 19.8% | -0.435% | -3.15% | 20.4% | 0.34% | 3.49% | 11% | -2.63% |  |  |  |  |  |  |  | 
6 | Cc1ccnc(Nc2nc(-c3ccccn3)cs2)c1 | 9.11% | 16% | 13.9% | -0.88% | 9.84% | 17.1% | -1.19% | 5.18% | 17.8% | -7.33% |  |  |  |  |  |  |  | 
7 | CCc1cc2c(cc1CC)CC(NC[C@H](O)c1ccc(O)c3[nH]c(=O)ccc13)C2 | 15.2% | 1.41% | 21.3% | 0.834% | -2.48% | 12.9% | 4.23% | -5.22% | 16.1% | -8.46% |  |  |  |  |  |  |  | 
8 | COc1cc(OC)cc(C(=O)NNC(=O)Nc2cccc3ccccc23)c1 | -8.62% | 3.65% | 2.2% | -1.69% | 5.26% | 2.66% | 3.09% | 3.6% | 11.6% | -7.99% |  |  |  |  |  |  |  | 
9 | COc1ccc(NC(=O)c2ccc(-c3ccc(-c4noc(C)n4)cc3C)cc2)cc1OCCN(C)C |  |  | 104% | 1.34% | -1.11% | 8.82% | -3.51% | -6.46% |  | 2% | 98% | 83.7% | 101% |  |  |  |  | 
10 | CN(C)C(=O)c1cc2cnc(Nc3ccc(N4CCNCC4)cn3)nc2n1C1CCCC1 | 24.6% | 59.5% | 16.4% | 3.31% | -0.842% | -3.4% | 4.33% | 21.9% | 57.4% | 8.98% |  |  |  |  |  |  |  | 
11 | NC(=O)c1cc(-c2ccc(S(=O)(=O)[C@H]3CC[C@H](Nc4ccc(C(F)(F)F)cn4)CC3)cc2)ccn1 | 10.9% | -6.62% | 25.9% | 11% | 9.33% | 17.1% | -3% | 12.2% | 8.07% | 4.02% |  |  |  |  |  |  |  | 
12 | Cc1cc(OCCCS(C)(=O)=O)cc(C)c1-c1cccc(COc2ccc3c(c2)OC[C@H]3CC(=O)O)c1 | 46.9% | 12.1% | 49.2% | -4.36% | 8.25% | 10.7% | 18.3% | 12.3% | 44.4% | -3.46% |  |  |  |  |  |  |  | 
13 | COc1cc(NC(=O)c2ccc(-c3ccc(Cl)cc3)o2)cc(OC)c1 | 21.1% | 18% | -0.703% | 6.97% | -9.78% | 8.82% | 3.08% | 15.3% | 9.84% | 3.14% |  |  |  |  |  |  |  | 
14 | COC(=O)c1cc2c(cn1)[nH]c1ccccc12 | 8.08% | 11.4% | 41.5% | 5.05% | 22.6% | 2.22% | 0.163% | 2.02% | 11% | -4.88% |  |  |  |  |  |  |  | 
15 | N=C(N)NCCSC(=N)N | 16.4% | -0.668% | -5.42% | -7.55% | -9.52% | -1.08% | -4.9% | -6.96% | 8.29% | -5.32% |  |  |  |  |  |  |  | 
16 | CN1CCN(c2ccc(Nc3c4ccccc4nc4ccccc34)cc2)CC1 | 88.7% |  | 113% |  |  |  |  |  |  | 12.9% |  | 90.3% | 73% | 65.5% | 90.9% | 84.8% | 84.8% | 78.7%
17 | NCCc1c[nH]c2ccc(O)cc12 | -6.88% | 21.8% | 2.2% | 5.88% | 9.75% | 1.92% | -2.75% | -6.38% | 20.7% | -8.18% |  |  |  |  |  |  |  | 
18 | Nc1nc2c(c(N3CCNCC3)n1)CCC1=C2[C@@H]2CCCC[C@@H]2O1 | 0.963% | -2.48% | 3.48% | -3.91% | 4.51% | 7.79% | -5.22% | 13.7% | 6.18% | -2.85% |  |  |  |  |  |  |  | 
19 | CCCCc1nc2ccc(NC(=O)NC3CCCCC3)cc2n1Cc1ccc(-c2ccccc2C(=O)O)cc1 | 30.2% | 24% | 38.2% | 9.29% | 11% | 8.52% | -1.26% | -6.72% | 33.1% | -9.57% |  |  |  |  |  |  |  | 
20 | CCCN(CCC)CCc1cccc2c1CC(=O)N2 | 2.3% | -1.21% | 10.1% | 7.51% | 1.01% | -4.67% | -5.66% | -5.12% | 8.55% | -9.36% |  |  |  |  |  |  |  | 
21 | COc1cc(OC)c(NC(=O)Nc2cc(C)on2)cc1Cl | -2.96% | -9.71% | -8.2% | -2.66% | 3.98% | 17.9% | -6.94% | -8.83% | -8.88% | -3.91% |  |  |  |  |  |  |  | 
